Measurements: patent US20250195521A1 (Revolution Medicines, Inc., priority 2020, published 2025)
Read-outs that look alike come from different tables or passages of the source.

Experiments:
[1] = target: KRAS WT binding to BRAF RBD (Homo sapiens (Human), UniProt P01116+P62937); assay: Ras-Raf disruption/FRET/MOA assay, KRAS WT; assay type: biochemical
Method in brief: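 TR-FRET disruption assay: His6-tagged GMPPNP-loaded Ras (12.5 nM), GST-BRAF RBD (50 nM) and Cyclophilin A (25 μM) incubated with compound (10-point 3-fold series from 30 μM) 3 h at 25°C in HEPES pH 7.3 buffer with MgCl2 and NaCl. Anti-His Eu (10 nM)/anti-GST APC (50 nM) added, 1.5 h more; IC50 from FRET-ratio decrease versus DMSO.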

NCI-H358 (K-Ras G12C) = assay: CellTiter-Glo cell viability assay, NCI-H358; assay type: cell-based, human; details: Homo sapiens, NCI-H358, 120 h
Method in brief: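 Five-day compound treatment of NCI-H358 cells, then CellTiter-Glo luminescence, percent of DMSO, four-parameter logistic fit.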

KRAS G12D = KRAS G12D (Homo sapiens (Human), UniProt P01116+P62937, G12D); assay: Ras-Raf disruption/FRET/MOA assay (BRAF RBD, Cyclophilin A); assay type: biochemical; details: read-out: KRAS G12D FRET IC50
KRAS G12D, sequence (P01116 other isoform, or with tags, fused parts or gaps G12D): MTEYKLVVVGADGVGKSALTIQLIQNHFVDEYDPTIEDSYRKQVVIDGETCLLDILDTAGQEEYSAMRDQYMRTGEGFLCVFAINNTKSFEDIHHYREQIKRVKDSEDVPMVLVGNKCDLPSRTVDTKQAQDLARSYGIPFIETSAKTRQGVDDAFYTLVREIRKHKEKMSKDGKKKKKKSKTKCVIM
KRAS G12D, sequence (P62937 whole entry): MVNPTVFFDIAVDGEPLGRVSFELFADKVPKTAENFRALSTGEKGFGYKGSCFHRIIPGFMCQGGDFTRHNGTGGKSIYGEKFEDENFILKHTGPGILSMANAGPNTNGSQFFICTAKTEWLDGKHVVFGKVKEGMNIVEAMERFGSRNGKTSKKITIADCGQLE
Method in brief: (§1)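 First, 25 μM Cyclophilin A, 12.5 nM His6-Ras-GMPPNP and 50 nM GST-BRAF RBD are mixed with diluted compound at pH 7.3. Next, 3 h at 25° C. Then 10 nM anti-His Eu-W1024 plus 50 nM anti-GST allophycocyanin for 1.5 h before TR-FRET reading.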

NRAS G12C = NRAS G12C (Homo sapiens (Human), UniProt P01111+P62937, G12C); assay: as above; assay type: biochemical; details: read-out: NRAS G12C FRET data IC50
NRAS G12C, sequence (P01111 whole entry G12C): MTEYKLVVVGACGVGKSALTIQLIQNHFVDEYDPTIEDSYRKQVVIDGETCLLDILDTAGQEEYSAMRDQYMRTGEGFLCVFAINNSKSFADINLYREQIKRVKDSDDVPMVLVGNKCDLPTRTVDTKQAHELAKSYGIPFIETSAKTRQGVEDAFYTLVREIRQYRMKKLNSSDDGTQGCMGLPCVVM
NRAS G12C, sequence (P62937 whole entry): as the sequence (P62937 whole entry) above
Method in brief: (§2)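 TR-FRET readout: anti-His Eu-W1024 (10 nM) and anti-GST allophycocyanin (50 nM) added after 3 h, 25° C compound incubation, then 1.5 h more. Decrease in FRET ratio versus DMSO wells marks Ras:RAF disruption; IC50 reported.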

KRAS G12V = KRAS G12V (Homo sapiens (Human), UniProt P01116+P62937, G12V); assay: as above; assay type: biochemical; details: read-out: KRAS G12V FRET IC50
KRAS G12V, sequence (P01116 other isoform, or with tags, fused parts or gaps G12V): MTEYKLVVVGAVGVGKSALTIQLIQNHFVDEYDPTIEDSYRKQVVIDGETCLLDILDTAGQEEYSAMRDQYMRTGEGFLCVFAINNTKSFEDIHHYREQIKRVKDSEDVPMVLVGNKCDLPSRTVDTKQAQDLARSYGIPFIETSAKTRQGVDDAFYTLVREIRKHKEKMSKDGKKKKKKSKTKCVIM
KRAS G12V, sequence (P62937 whole entry): as the sequence (P62937 whole entry) above
Method in brief: as §1

KRAS G13D = KRAS G13D (Homo sapiens (Human), UniProt P01116+P62937, G13D); assay: as above; assay type: biochemical; details: read-out: KRAS G13D FRET data IC50
KRAS G13D, sequence (P01116 other isoform, or with tags, fused parts or gaps G13D): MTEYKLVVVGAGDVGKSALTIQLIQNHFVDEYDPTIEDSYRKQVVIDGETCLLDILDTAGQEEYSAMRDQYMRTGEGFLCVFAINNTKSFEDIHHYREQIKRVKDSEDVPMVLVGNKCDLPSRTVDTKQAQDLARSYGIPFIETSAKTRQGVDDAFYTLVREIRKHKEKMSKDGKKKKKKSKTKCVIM
KRAS G13D, sequence (P62937 whole entry): as the sequence (P62937 whole entry) above
Method in brief: as §1

KRAS G12S = KRAS G12S (Homo sapiens (Human), UniProt P01116+P62937, G12S); assay: as above; assay type: biochemical; details: read-out: KRAS G12S FRET IC50
KRAS G12S, sequence (P01116 other isoform, or with tags, fused parts or gaps G12S): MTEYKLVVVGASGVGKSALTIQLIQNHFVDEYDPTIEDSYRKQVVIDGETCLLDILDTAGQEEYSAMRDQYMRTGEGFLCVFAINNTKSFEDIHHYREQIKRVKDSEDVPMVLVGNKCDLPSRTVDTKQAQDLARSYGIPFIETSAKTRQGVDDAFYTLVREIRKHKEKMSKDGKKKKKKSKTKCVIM
KRAS G12S, sequence (P62937 whole entry): as the sequence (P62937 whole entry) above
Method in brief: as §1

KRAS G13C = KRAS G13C (Homo sapiens (Human), UniProt P01116+P62937, G13C); assay: as above; assay type: biochemical; details: read-out: KRAS G13C FRET IC50
KRAS G13C, sequence (P01116 other isoform, or with tags, fused parts or gaps G13C): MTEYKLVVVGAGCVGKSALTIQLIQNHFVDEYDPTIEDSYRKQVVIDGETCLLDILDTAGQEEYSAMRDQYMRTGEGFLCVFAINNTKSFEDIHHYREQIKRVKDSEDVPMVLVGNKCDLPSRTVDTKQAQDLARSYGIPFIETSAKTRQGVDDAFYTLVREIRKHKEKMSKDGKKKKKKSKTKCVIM
KRAS G13C, sequence (P62937 whole entry): as the sequence (P62937 whole entry) above
Method in brief: as §1

KRAS G12C = KRAS G12C (Homo sapiens (Human), UniProt P01116+P62937, G12C); assay: as above; assay type: biochemical; details: read-out: KRAS G12C FRET IC50
KRAS G12C, sequence (P01116-2 other isoform, or with tags, fused parts or gaps G12C): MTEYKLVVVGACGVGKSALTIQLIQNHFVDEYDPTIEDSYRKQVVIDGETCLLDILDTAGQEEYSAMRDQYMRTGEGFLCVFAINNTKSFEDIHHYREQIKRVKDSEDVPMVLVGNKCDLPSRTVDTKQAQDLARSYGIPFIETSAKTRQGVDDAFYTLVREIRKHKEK
KRAS G12C, sequence (P62937 whole entry): as the sequence (P62937 whole entry) above
Method in brief: as §1

KRAS WT = KRAS WT (Homo sapiens (Human), UniProt P01116+P62937); assay: as above; assay type: biochemical; details: read-out: KRAS WT FRET data IC50
KRAS WT, sequence (P01116 other isoform, or with tags, fused parts or gaps): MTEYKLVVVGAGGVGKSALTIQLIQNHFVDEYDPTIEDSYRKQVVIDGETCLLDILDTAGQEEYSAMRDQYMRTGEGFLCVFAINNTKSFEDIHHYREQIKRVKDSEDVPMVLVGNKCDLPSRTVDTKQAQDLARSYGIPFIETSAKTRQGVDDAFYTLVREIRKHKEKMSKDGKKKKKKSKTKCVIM
KRAS WT, sequence (P62937 whole entry): as the sequence (P62937 whole entry) above
Method in brief: as §1

NRAS Q61R = NRAS Q61R (Homo sapiens (Human), UniProt P01111+P62937, Q61R); assay: as above; assay type: biochemical
NRAS Q61R, sequence (P01111 whole entry Q61R): as the sequence (P01111 whole entry G12C) above, with C12G, Q61R counted along it
NRAS Q61R, sequence (P62937 whole entry): as the sequence (P62937 whole entry) above
Method in brief: as §2

NRAS Q61K = NRAS Q61K (Homo sapiens (Human), UniProt P01111+P62937, Q61K); assay: as above; assay type: biochemical
NRAS Q61K, sequence (P01111 whole entry Q61K): as the sequence (P01111 whole entry G12C) above, with C12G, Q61K counted along it
NRAS Q61K, sequence (P62937 whole entry): as the sequence (P62937 whole entry) above
Method in brief: as §2

NRAS WT = NRAS WT (Homo sapiens (Human), UniProt P01111+P62937); assay: as above; assay type: biochemical
NRAS WT, sequence (P01111 whole entry): as the sequence (P01111 whole entry G12C) above, with C12G counted along it
NRAS WT, sequence (P62937 whole entry): as the sequence (P62937 whole entry) above
Method in brief: as §2

KRAS Q61H = KRAS Q61H (Homo sapiens (Human), UniProt P01116+P62937, Q61H); assay: as above; assay type: biochemical
KRAS Q61H, sequence (P01116 other isoform, or with tags, fused parts or gaps Q61H): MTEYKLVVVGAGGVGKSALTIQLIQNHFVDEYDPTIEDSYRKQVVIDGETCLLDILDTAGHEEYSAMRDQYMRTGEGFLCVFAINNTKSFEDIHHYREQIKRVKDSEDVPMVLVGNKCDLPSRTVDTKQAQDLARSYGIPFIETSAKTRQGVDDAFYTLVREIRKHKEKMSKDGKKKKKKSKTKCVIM
KRAS Q61H, sequence (P62937 whole entry): as the sequence (P62937 whole entry) above
Method in brief: as §1

[2] = 5-day treatment, read-out: H358 Cell Viability assay data (K-Ras G12C, IC50)

KRAS WT binding to BRAF RBD, sequence (P01116 other isoform, or with tags, fused parts or gaps): as the sequence (P01116 other isoform, or with tags, fused parts or gaps) above
KRAS WT binding to BRAF RBD, sequence (P62937 whole entry): as the sequence (P62937 whole entry) above

IC50 [1] [nM]	IC50 (NCI-H358 (K-Ras G12C); [2]) [µM]	IC50 (KRAS G12D) [nM]	IC50 (NRAS G12C) [nM]	IC50 (KRAS G12V) [nM]	IC50 (KRAS G13D) [nM]	IC50 (KRAS G12S) [nM]	IC50 (KRAS G13C) [nM]	IC50 (KRAS G12C) [nM]	IC50 (KRAS WT) [nM]	IC50 (NRAS Q61R) [nM]	IC50 (NRAS Q61K) [nM]	IC50 (NRAS WT) [nM]	IC50 (KRAS Q61H) [nM]	Compound	IC50 (NCI-H358 (K-Ras G12C); read-out: H358 Cell Viability assay data (K-Ras G12C, IC50, uM), 5-day treatment) [µM]
10 to 100	< 0.01	1000 to 10000	100 to 1000	100 to 1000	100 to 1000	100 to 1000	100 to 1000	100 to 1000	100 to 1000	–	–	–	–	CCn1c(-c2cccnc2[C@H](C)OC)c2c3cc(ccc31)-c1csc(n1)C[C@H](NC(=O)[C@H](C(C)C)N(C)C(=O)N1CC(N3CCC3)C1)C(=O)N1CCC[C@H](N1)C(=O)OCC(C)(C)C2 [Compound A295]	–
10 to 100	0.01 to 0.1	1000 to 10000	10 to 100	100 to 1000	100 to 1000	100 to 1000	100 to 1000	10 to 100	100 to 1000	–	–	–	–	CCn1c(-c2cccnc2[C@H](C)OC)c2c3cc(ccc31)-c1csc(n1)C[C@H](NC(=O)[C@H](C(C)C)N(C)C(=O)N1CC(N3CCOCC3)C1)C(=O)N1CCC[C@H](N1)C(=O)OCC(C)(C)C2 [Compound A338]	–
10 to 100	0.01 to 0.1	1000 to 10000	100 to 1000	100 to 1000	1000 to 10000	100 to 1000	100 to 1000	100 to 1000	100 to 1000	1000 to 10000	100 to 1000	100 to 1000	100 to 1000	CCn1c(-c2cccnc2[C@H](C)OC)c2c3cc(ccc31)-c1csc(n1)C[C@H](NC(=O)C1CC1)C(=O)N1CCC[C@H](N1)C(=O)OCC(C)(C)C2 [Compound A367]	–
10 to 100	0.01 to 0.1	100 to 1000	10 to 100	1000 to 10000	10 to 100	100 to 1000	10 to 100	10 to 100	100 to 1000	–	–	–	–	CCn1c(-c2cccnc2[C@H](C)OC)c2c3cc(ccc31)-c1cc(O)cc(c1)C[C@H](NC(=O)[C@H](C(C)C)N(C)C(=O)C1CNCCNC1)C(=O)N1CCC[C@H](N1)C(=O)OCC(C)(C)C2 [Compound A432]	–
10 to 100	0.01 to 0.1	100 to 1000	10 to 100	100 to 1000	100 to 1000	100 to 1000	100 to 1000	100 to 1000	100 to 1000	100 to 1000	100 to 1000	100 to 1000	100 to 1000	CCn1c(-c2cccnc2[C@H](C)OC)c2c3cc(ccc31)-c1csc(n1)C[C@H](NC(=O)[C@H](C(C)C)N(C)C(=O)N1CCO[C@@]3(CCN(C)C3)C1)C(=O)N1CCC[C@H](N1)C(=O)OCC(C)(C)C2 [Compound A436]	–
10 to 100	< 0.01	1000 to 10000	100 to 1000	1000 to 10000	1000 to 10000	1000 to 10000	1000 to 10000	100 to 1000	1000 to 10000	1000 to 10000	100 to 1000	100 to 1000	100 to 1000	CCn1c(-c2cccnc2[C@H](C)OC)c2c3cc(ccc31)-c1csc(n1)C[C@H](NC(=O)[C@H](C(C)C)N(C)C(=O)N1CC[C@]3(CCNC3=O)C1)C(=O)N1CCC[C@H](N1)C(=O)OCC(C)(C)C2 [Compound A479]	–
10 to 100	< 0.01	100 to 1000	10 to 100	100 to 1000	100 to 1000	100 to 1000	100 to 1000	10 to 100	10 to 100	100 to 1000	–	10 to 100	10 to 100	CCn1c(-c2cccnc2[C@H](C)OC)c2c3cc(ccc31)-c1csc(n1)C[C@H](NC(=O)[C@H](C(C)C)N(C)C(=O)N1CCC[C@H](N(C)C)CC1)C(=O)N1CCC[C@H](N1)C(=O)OCC(C)(C)C2 [Compound A493]	–
10 to 100	< 0.01	1000 to 10000	100 to 1000	1000 to 10000	1000 to 10000	100 to 1000	1000 to 10000	100 to 1000	100 to 1000	100 to 1000	100 to 1000	100 to 1000	100 to 1000	CCn1c(-c2cccnc2[C@H](C)OC)c2c3cc(ccc31)-c1csc(n1)C[C@H](NC(=O)[C@H](C(C)C)N(C)C(=O)N(C)C1(C)COC1)C(=O)N1CCC[C@H](N1)C(=O)OCC(C)(C)C2 [Compound A527]	–
10 to 100	< 0.01	100 to 1000	10 to 100	100 to 1000	100 to 1000	10 to 100	100 to 1000	10 to 100	10 to 100	100 to 1000	–	10 to 100	10 to 100	CCn1c(-c2cccnc2[C@H](C)OC)c2c3cc(ccc31)-c1csc(n1)C[C@H](NC(=O)[C@H](C(C)C)N(C)C(=O)N1CCN3C(=O)CN(C)C[C@H]3C1)C(=O)N1CCC[C@H](N1)C(=O)OCC(C)(C)C2 [Compound A537]	–
10 to 100	< 0.01	1000 to 10000	100 to 1000	100 to 1000	100 to 1000	100 to 1000	100 to 1000	100 to 1000	100 to 1000	100 to 1000	100 to 1000	100 to 1000	100 to 1000	CCn1c(-c2cccnc2[C@H](C)OC)c2c3cc(ccc31)-c1csc(n1)C[C@H](NC(=O)[C@H](C(C)C)N(C)C(=O)N1CC3(CCN(C)C3)C1)C(=O)N1CCC[C@H](N1)C(=O)OCC(C)(C)C2 [Compound A602]	–

Compound	IC50 [1] [nM]	IC50 (NCI-H358 (K-Ras G12C); [2]) [µM]	IC50 (KRAS G12D) [nM]	IC50 (NRAS G12C) [nM]	IC50 (KRAS G12V) [nM]	IC50 (KRAS G13D) [nM]	IC50 (KRAS G12S) [nM]	IC50 (KRAS G13C) [nM]	IC50 (KRAS G12C) [nM]	IC50 (KRAS WT) [nM]	IC50 (NRAS Q61R) [nM]	IC50 (NRAS Q61K) [nM]	IC50 (NRAS WT) [nM]	IC50 (KRAS Q61H) [nM]	IC50 (NCI-H358 (K-Ras G12C); read-out: H358 Cell Viability assay data (K-Ras G12C, IC50, uM), 5-day treatment) [µM]
CCn1c(-c2cccnc2[C@H](C)OC)c2c3cc(ccc31)-c1csc(n1)[C@@H](OC)[C@H](NC(=O)[C@H](C(C)C)N(C)C(=O)N(C)C)C(=O)N1CCC[C@H](N1)C(=O)OCC(C)(C)C2 [Compound A598, (2S)—N-((6^3S,3S,4S,Z)-1^1-ethyl-3-methoxy-1^2-(2-((S)-1-methoxyethyl)pyridin-3-yl)-10,10-dimethyl-5,7-dioxo-6^1,6^2,6^3,6^4,6^5,6^6-hexahydro-1^1H-8-oxa-2 (4,2)-thiazola-1 (5,3)-indola-6 (1,3)-pyridazinacycloundecaphane-4-yl)-3-methyl-2-(1,3,3-trimethylureido) butanamide]	10 to 100	–	1000 to 10000	10 to 100	100 to 1000	100 to 1000	100 to 1000	100 to 1000	10 to 100	100 to 1000	100 to 1000	–	100 to 1000	100 to 1000	0.01 to 0.1
